# In patent US5378692A, “Method of lowering lipids” (Senju Pharmaceutical Co., Ltd., priority 1992, dated 1995):
# Legend:
# rat hypertriglyceridemia = assay: Effect on rat hypertriglyceridemia (Intralipid-induced), serum triglyceride; assay type: in vivo; details: male Wistar rats; for TG (serum triglyceride): 200 mg/2 ml/kg i.p., Intralipid 2 ml/kg i.v. 0.5 hour after dosing, blood 30 min after injection, mean ± S.E., n = 8-9; for triglyceride (TG) lowering effect (in words): 200 mg/kg i.p., versus control
# Procedure: Intralipid (Otsuka Pharmaceutical Co., Ltd.) was used for induction of hypertriglyceridemia in rats.
# The treatment groups were intraperitoneally dosed with glutathione (hereinafter referred to as GSH), S-(diethyl α, β-dicarboxyethyl)glutathione (hereinafter, DCE-Et-GS), S-(diethyl α, β-dicarboxyethyl)glutathione isopropyl ester (hereinafter, DCE-Et-GS-iPr) and S-(α, β-dicarbamoylethyl)glutathione (hereinafter, DCE-NH2 -GS), each dissolved in physiological saline. The dose was invariously 200 mg/2 ml/kg. The control group received 2 ml/kg of physiological saline i.p. The normal group was also provided.
# Intralipid 2 ml/kg was injected into the tail vein 0.5 hour after administration of the test substance. Thirty minutes after the injection, the blood was collected and the serum triglyceride (TG) was determined.
# [1] = test system: rat alcoholic fatty liver; details: male Wistar rats; for TG (liver triglyceride): 1000 mg/5 ml/kg p.o., 38% ethyl alcohol 10 ml/kg p.o. 1 hour later, liver excised 6 hours after alcohol, mean ± S.E., n = 8-9
# Procedure: Male Wistar rats, 7 weeks old, were used in fasted state.
# The experiment was performed in a control group, drug treatment groups and a normal group, each consisting of 8 to 9 animals.
# The treatment groups were orally dosed with GSH and DCE-Et-GS-iPr, each dissolved in distilled water, at the dose level of 1000 mg/5 ml/kg. The control group received 5 ml/kg of distilled water p.o. The normal group was also provided.
# One hour after administration of the test substance, 10 ml/kg of 38% ethyl alcohol was orally administered to the animals for induction of fatty liver. The liver was excised 6 hours after administration of ethyl alcohol and the triglyceride (TG) was determined by the acetylacetone method.
# [2] = test system: rat streptozotocin diabetes; assay: Effect on rat streptozotocin diabetes, blood lipids; assay type: in vivo; details: STZ-diabetic male SD rats, 100 mg/2 ml/kg i.p. once a day, mean, n = 4-7; for Total Cholesterol Week 4: week 4, tail blood; for Total Cholesterol Week 8: week 8, tail blood; for Total Cholesterol Week 10: week 10, abdominal aorta blood
# Procedure: Using male 4-week-old SD rats, streptozotocin (STZ), 70 mg/kg, was injected into the tail vein to construct a diabetes model. As test substances, DCE-GS, DCE-Et-GS and DCE-Et-GS-iPr, each dissolved in physiological saline, were respectively administered intraperitoneally in doses of 100 mg/2 ml/kg once a day. The control group received physiological saline, 2 ml/kg, i.p. The normal group was also provided.
# At weeks 4 and 8 of treatment, the blood was collected from the tail and the total cholesterol was determined. Furthermore, at week 10, the blood was collected from the abdominal aorta for blood biochemical tests.
Compound,TG (serum triglyceride) (rat hypertriglyceridemia),TG (liver triglyceride) [1],triglyceride (TG) lowering effect (in words) (rat hypertriglyceridemia),Total Cholesterol Week 4 [2],Total Cholesterol Week 8 [2],Total Cholesterol Week 10 [2],TG (blood triglycerides) ([2]; week 10),β-lipoproteins ([2]; week 10),"triglyceride (TG) lowering effect (in words) ([1]; 1000 mg/kg p.o., versus control)",VLDL ([2]; week 10)
"N[C@@H](CCC(=O)N[C@@H](CS)C(=O)NCC(=O)O)C(=O)O [GSH, glutathione, reference compound]",150.4 ± 12 mg/dL,13.0 ± 0.4 mg/g liver,,,,,,,,
"NC(=O)CC(SC[C@H](NC(=O)CC[C@H](N)C(=O)O)C(=O)NCC(=O)O)C(N)=O (stereo partly drawn) [DCE-NH2 -GS, S-(α, β-dicarbamoylethyl)glutathione]",72.4 ± 6 mg/dL,,Significant triglyceride (TG) lowering effects,,,,,,,
"N[C@@H](CCC(=O)N[C@@H](CSC(CC(=O)O)C(=O)O)C(=O)NCC(=O)O)C(=O)O (stereo partly drawn) [DCE-GS, S-(α, β-dicarboxyethyl)glutathione]",,,,109.8 mg/dL,118.2 mg/dL,95 mg/dL,406 mg/dL,759 mg/dL,,
"CCOC(=O)CC(SC[C@H](NC(=O)CC[C@H](N)C(=O)O)C(=O)NCC(=O)OC(C)C)C(=O)OCC (stereo partly drawn) [DCE-Et-GS-iPr, S-(diethyl α, β-dicarboxyethyl)glutathione isopropyl ester]",66.1 ± 11 mg/dL,10.7 ± 0.3 mg/g liver,Significant triglyceride (TG) lowering effects,113.9 mg/dL,110.5 mg/dL,120 mg/dL,404 mg/dL,818 mg/dL,significant triglyceride (TG) lowering effect,106 mg/dL
